Reference: patent publication US20190298740A1, “METHODS AND COMPOSITIONS FOR TREATING HALLUCINATIONS AND CONDITIONS RELATED TO THE SAME” (Enterin, Inc., priority 2018, published 2019)
Where two headings read alike, the source gives them in different places.

Key:
patients with PD [1] = assay: Sleep diary: total sleep time and REM-behavior disorder; type: in vivo, human
Source text: (5) Sleep Diary (participants completed a sleep diary on a daily basis throughout the study. The diaries included time into bed and estimated time to sleep as well as wake time and duration during the night);
(§1) Exploratory end-points, in addition to constipation, included for example, (i) depression assessed using the Beck Depression Inventory (BDI-II) (Steer et al. 2000) and Unified Parkinson's Disease Rating Scale (UPDRS); (ii) cognition assessed using the Mini Mental State Examination (MMSE) (Palsteia et al. 2018), Unified Parkinson's Disease Rating Scale (UPDRS), and Trail Making Test (TMT); (iii) sleep and REM-behavior disorder (RBD) using a daily sleep diary, I-Button Temperature Assessment, a REM sleep behavior disorder (RBD) questionnaire (RBDQ) (Stiasny-Kolster et al. 2007), and the UPDRS; (iv) hallucinations assessed using the PD hallucinations questionnaire (PDHQ) (Papapetropoulos et al. 2008), the UPDRS, and direct questioning; (v) fatigue using the Parkinson's Disease Fatigue Scale (PFS-16) and the UPDRS; (vi) motor functions using the UPDRS; and (vii) non-motor functions using the UPDRS.

[2] = Preclinical oral dosing studies in dogs; details: dog, in vivo
αS = αS (Homo sapiens, UniProt P37840); details: in vitro; cited from earlier work
mouse models of PD = details: cited from earlier work
C. elegans αS model = details: in vivo, C. elegans model of PD; cited from earlier work
patients with PD [3] = assay: CNS symptoms in Stage 2 (UPDRS, MMSE, PDHQ, BDI-II, direct questioning); type: in vivo, human; details: for PDHQ / BDI-II / UPDRS Part 2 (Daily living) / MMSE / UPDRS Part 3 (Motor): mean (SD); for PDHQ: baseline 1.3 (2.99); for BDI-II: baseline 10.9 (7.12); for UPDRS Part 2 (Daily living): baseline 14.9 (8.11); for MMSE: baseline 28.4 (1.75); for UPDRS Part 3 (Motor): baseline 35.3 (14.35)
Source text: as §1
Assessments were made at baseline and at the end of the fixed dose and washout periods. Circadian system status was evaluated by continuously monitoring wrist skin temperature (Thermochron iButton DS1921H; Maxim, Dallas) following published procedures (Sarabia et al. 2008).
An exploratory analysis was done with respect to the sleep data, the body temperature data, mood, fatigue, hallucinations, cognition and other motor and non-motor symptoms of PD. Continuous measurements within a subject were compared with a paired t-test and continuous measurements between subject groups were compared with a two-group t-test. Categorical data were compared with a chi-squared test or a Fisher's exact test if the expected cell counts are too small for a chi-squared test.
CNS symptoms were evaluated at baseline and at the end of the fixed dose period and the wash-out period (Table 13). Total UPDRS score was 64.4 at baseline, 60.6 at the end of the fixed dose period and 55.7 at the end of the wash-out period (p=0.002); similarly, the motor component of the UPDRS improved from 35.3 at baseline to 33.3 at the end of fixed dose to 30.2 at the end of wash-out (p=0.006). MMSE improved from 28.4 at baseline to 28.7 during treatment and to 29.3 during wash-out (p=0.0006). […] PDHQ improved from 1.3 at baseline to 1.8 during treatment and 0.9 during wash-out (p=0.03). Hallucinations were reported by 5 patients at baseline and delusions in 1 patient. […] The frequency of arm or leg thrashing reported in the sleep diary diminished progressively from 2.2 episodes/week at baseline to 0 at maximal dose. […] Unlike stool-related indices, the improvement in many CNS symptoms persisted during wash-out.

[4] = Pharmacokinetics of orally administered squalamine (ENT-01), Phase 2 trial; type: in vivo; details: human; for AUC(0-t) / half-life / Cmax / Tmax: po; for Cmax: mean, approximate; for Tmax: read-out: Tmax (median value)
Procedure: PK data were collected on the 10 patients enrolled in Stage 1 and 10 patients enrolled in Stage 2 to determine the extent of systemic absorption. In Stage 1, PK data were obtained at each visit, pre-medication, at 1, 2, 4, 8 and 24 hours (Table 11). In Stage 2, PK was measured on days 1 and 6 of the randomization period pre-medication, at 1, 2, 4 and 8 hours (Table 12).
The mean Cmax, Tmax and T1/2 and AUC of the squalamine ion following squalamine (ENT-01) oral dosing for Stage 1 patients. The PK analyses are only approximate, as the lower limit of the validated concentration range was 10 ng/ml; most of the measured concentrations fell below that value. The mean Cmax, Tmax and T1/2 and AUC of the squalamine ion following squalamine (ENT-01) oral dosing for Stage 2 patients. The PK analyses are only approximate, as the lower limit of the validated concentration range was 0.5 ng/ml.

[5] = Stage 2, n = 34, fixed dose, listed as Squalamine (ENT-01)
[6] = in vivo, 50 mg, Stage 1, 50 mg oral, 10 patients
[7] = in vivo, 100 mg, Stage 2, 100 mg oral daily, 4 patients (2 visits each)
[8] = in vivo, 175 mg, Stage 1, 175 mg oral, 7 patients
[9] = in vivo, 175 mg, Stage 2, 175 mg oral daily, 5 patients (2 visits each)
[10] = plasma, 25 mg, Stage 1, 25 mg oral, 9 patients
[11] = plasma, 75 mg, Stage 1, 75 mg oral, 9 patients
[12] = plasma, 75 mg, Stage 2, 75 mg oral daily, 1 patient (2 visits)
[13] = plasma, 100 mg, Stage 1, 100 mg oral, 9 patients
[14] = plasma, 125 mg, Stage 1, 125 mg oral, 9 patients
[15] = plasma, 200 mg, Stage 1, 200 mg oral, 6 patients

In the case of `CC(C)[C@@H](CC[C@@H](C)[C@H]1CC[C@H]2[C@@H]3[C@H](O)C[C@H]4C[C@@H](NCCCNCCCCN)CC[C@]4(C)[C@H]3CC[C@]12C)OS(=O)(=O)O` (single isomer, unassigned) [squalamine (ENT-01)], the “Dose beyond which total sleep time was consistently higher than baseline” value (patients with PD [1]; Stage 2) is reported as over 125 mg, the Total sleep time (patients with PD [1]; at 250 mg, baseline 7.1 hours) is reported as 8.4 h and the “Frequency of arm or leg thrashing (sleep diary)” value (patients with PD [1]; at maximal dose, baseline 2.2) is reported as 0 episodes/week. For the same compound, the bioavailability [2] was about 0.1%, the “Formation of aggregates of αS” value (αS) was “inhibits the formation of αS aggregates” and the Gastrointestinal motility (mouse models of PD) was “restores gastrointestinal motility”. The “Formation of aggregates of αS” value (C. elegans αS model) was “inhibits the formation of αS aggregates”, the PDHQ (patients with PD [3]; Stage 2, n = 34, fixed dose) was 1.8 and the PDHQ (patients with PD [3]; [5]) was 1.8 (3.34). The BDI-II (patients with PD [3]; Stage 2, n = 34, fixed dose) was 9.9, the “UPDRS Part 2 (Daily living)” value (patients with PD [3]; Stage 2, n = 34, fixed dose) was 14.7 (9.02) and the MMSE (patients with PD [3]; Stage 2, n = 34, fixed dose) was 28.7. For the same compound, the “UPDRS Part 3 (Motor)” value (patients with PD [3]; Stage 2, n = 34, fixed dose) was 33.3, the “UPDRS Part 3 (Motor)” value (patients with PD [3]; [5]) was 33.3 (15.20) and the PDHQ (patients with PD [3]; Stage 2, n = 34, wash-out) was 0.9. For the same compound, the BDI-II (patients with PD [3]; Stage 2, n = 34, wash-out) was 8.7, the “UPDRS Part 2 (Daily living)” value (patients with PD [3]; Stage 2, n = 34, wash-out) was 14.1 (8.21) and the MMSE (patients with PD [3]; Stage 2, n = 34, wash-out) was 29.3. For the same compound, the “UPDRS Part 3 (Motor)” value (patients with PD [3]; Stage 2, n = 34, wash-out) was 30.2, the “UPDRS Part 3 (Motor)” value (patients with PD [3]; Stage 2, n = 34, wash-out, listed as Squalamine (ENT-01)) was 30.2 (13.23) and the “Dose at which the hallucinations disappeared” value (patients with PD [3]; one patient, colonic prokinetic dose 175 mg not yet reached) was 100 mg. The AUC(0-t) ([4]; in vivo, 25 mg, Stage 1, 25 mg oral, 9 patients, read-out: AUC0-8hr) was 10.8 ng·h/mL, the AUC(0-t) ([4]; in vivo, 25 mg, Stage 1, 25 mg oral, 9 patients, read-out: AUC0-16hr) was 19.6 ng·h/mL and the half-life ([4]; in vivo, 25 mg, Stage 1, 25 mg oral, n = 3, read-out: T½ (converted)) was 2.6 h. The Cmax [4, 6] was 3.73 ng/mL, the AUC(0-t) ([4]; in vivo, 50 mg, Stage 1, 50 mg oral, 10 patients, read-out: AUC0-8hr) was 18.5 ng·h/mL and the AUC(0-t) ([4]; in vivo, 50 mg, Stage 1, 50 mg oral, 10 patients, read-out: AUC0-16hr) was 33.1 ng·h/mL. For the same compound, the Tmax [4, 6] was 2 h, the half-life ([4]; in vivo, 50 mg, Stage 1, 50 mg oral, n = 3, read-out: T½ (converted)) was 3.4 h and the Cmax [4, 7] was 17.7 ng/mL. It also gave an AUC(0-t) ([4]; in vivo, 100 mg, Stage 2, 100 mg oral daily, 4 patients (2 visits each), read-out: AUC0-8 hr) of 70.3 ng·h/mL, a Tmax [4, 7] of 1 h and a half-life ([4]; in vivo, 100 mg, Stage 2, 100 mg oral daily, n = 5, read-out: T1/2 (converted)) of 4.8 h. It also gave an AUC(0-t) ([4]; in vivo, 150 mg, Stage 1, 150 mg oral, 7 patients, read-out: AUC0-8hr) of 31.5 ng·h/mL, an AUC(0-t) ([4]; in vivo, 150 mg, Stage 1, 150 mg oral, 7 patients, read-out: AUC0-16hr) of 64 ng·h/mL and a Tmax ([4]; in vivo, 150 mg, Stage 1, 150 mg oral, 7 patients) of 2 h. For the same compound, the half-life ([4]; in vivo, 150 mg, Stage 1, 150 mg oral, n = 4, read-out: T½ (converted)) was 5.6 h, the Cmax [4, 8] was 10.3 ng/mL and the AUC(0-t) ([4]; in vivo, 175 mg, Stage 1, 175 mg oral, 7 patients, read-out: AUC0-8hr) was 49.7 ng·h/mL. The Tmax [4, 8] was 2 h, the half-life ([4]; in vivo, 175 mg, Stage 1, 175 mg oral, n = 6, read-out: T½ (converted)) was 9.1 h and the Cmax [4, 9] was 11.8 ng/mL. It also gave an AUC(0-t) ([4]; in vivo, 175 mg, Stage 2, 175 mg oral daily, 5 patients (2 visits each), read-out: AUC0-8 hr) of 66.8 ng·h/mL, a Tmax [4, 9] of 2 h and a half-life ([4]; in vivo, 175 mg, Stage 2, 175 mg oral daily, n = 6, read-out: T1/2 (converted)) of 10 h. It also gave a Cmax [4, 10] of 2.84 ng/mL, a Tmax [4, 10] of 1 h and a Cmax [4, 11] of 4.33 ng/mL. For the same compound, the AUC(0-t) ([4]; plasma, 75 mg, Stage 1, 75 mg oral, 9 patients, read-out: AUC0-8hr) was 18.4 ng·h/mL, the AUC(0-t) ([4]; plasma, 75 mg, Stage 1, 75 mg oral, 9 patients, read-out: AUC0-16hr) was 29.8 ng·h/mL and the Tmax [4, 11] was 2 h. The half-life ([4]; plasma, 75 mg, Stage 1, 75 mg oral, n = 2, read-out: T½ (converted)) was 2.8 h, the Cmax [4, 12] was 10 ng/mL and the AUC(0-t) ([4]; plasma, 75 mg, Stage 2, 75 mg oral daily, 1 patient (2 visits), read-out: AUC0-8 hr) was 59 ng·h/mL. The Tmax [4, 12] was 3 h, the half-life ([4]; plasma, 75 mg, Stage 2, 75 mg oral daily, n = 1, read-out: T1/2 (converted)) was 5.5 h and the Cmax [4, 13] was 6.18 ng/mL. It also gave an AUC(0-t) ([4]; plasma, 100 mg, Stage 1, 100 mg oral, 9 patients, read-out: AUC0-8hr) of 29.6 ng·h/mL, an AUC(0-t) ([4]; plasma, 100 mg, Stage 1, 100 mg oral, 9 patients, read-out: AUC0-16hr) of 51.5 ng·h/mL and a Tmax [4, 13] of 2 h. For the same compound, the half-life ([4]; plasma, 100 mg, Stage 1, 100 mg oral, n = 5, read-out: T½ (converted)) was 3.9 h, the Cmax [4, 14] was 9.63 ng/mL and the AUC(0-t) ([4]; plasma, 125 mg, Stage 1, 125 mg oral, 9 patients, read-out: AUC0-8hr) was 43.1 ng·h/mL. It also gave an AUC(0-t) ([4]; plasma, 125 mg, Stage 1, 125 mg oral, 9 patients, read-out: AUC0-16hr) of 77.7 ng·h/mL, a Tmax [4, 14] of 2 h and a half-life ([4]; plasma, 125 mg, Stage 1, 125 mg oral, n = 4, read-out: T½ (converted)) of 3.9 h. For the same compound, the Cmax ([4]; plasma, 150 mg, Stage 1, 150 mg oral, 7 patients) was 6.27 ng/mL, the AUC(0-t) ([4]; plasma, 175 mg, Stage 1, 175 mg oral, 7 patients, read-out: AUC0-16hr) was 91.2 ng·h/mL and the Cmax [4, 15] was 15.1 ng/mL. It also gave an AUC(0-t) ([4]; plasma, 200 mg, Stage 1, 200 mg oral, 6 patients, read-out: AUC0-8hr) of 78.3 ng·h/mL, an AUC(0-t) ([4]; plasma, 200 mg, Stage 1, 200 mg oral, 6 patients, read-out: AUC0-16hr) of 157 ng·h/mL and a Tmax [4, 15] of 2 h. The half-life ([4]; plasma, 200 mg, Stage 1, 200 mg oral, n = 5, read-out: T½ (converted)) was 9 h and the bioavailability ([4]; plasma, Stage 1, oral dosing up to 200 mg (114 mg/m^2), compared with prior phase 1 IV data, read-out: Approximate oral bioavailability) was about 0.1%.
